What was measured:
wild oat = test: Test Example 5: herbicidal effect by foliage application, plastic box (Table 20, symbol I); type: in vivo, wild oat (Avena fatua); settings: foliage application; for I: wild oat, herbicidal effect grade: three weeks after application
Summary of the method: (§1)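 Foliar spray test: emulsion formulation diluted in water to a set application rate, sprayed onto 14-day-old plants raised in diluvial soil at 25° C to 30° C under glass. Both herbicidal effect and crop effect rated visually three weeks later.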

chickweed = test: Test Example 4: herbicidal effect by soil treatment (Table 19, symbol P); type: in vivo, common chickweed (Stellaria media); settings: amount of applied herbicide 320 g/ha
Summary of the method: (§2)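 Herbicidal effect was rated 3 weeks after treatment, using the scoring criteria of an earlier test. The compound, formulated as an emulsion and diluted in water to a set herbicide amount, had been sprayed uniformly on soil over freshly sown seeds. Growth took place in a greenhouse at 25° C. to 30° C.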

lambsquarters = test: Test Example 5: herbicidal effect by foliage application, plastic box (Table 20, symbol O); type: in vivo, lambsquarters (Chenopodium album); settings: foliage application; for O: lambsquarters, herbicidal effect grade: three weeks after application
Summary of the method: as §1

persian speedwell = test: Test Example 5: herbicidal effect by foliage application, plastic box (Table 20, symbol R); type: in vivo, Persian speedwell (Veronica persica); settings: foliage application; for R: persian speedwell, herbicidal effect grade: three weeks after application
Summary of the method: as §1

barnyard grass [1] = test: Test Example 3: herbicidal effect by foliage application, Wagner pot (Table 18, symbol H); type: in vivo, barnyard grass (Echinochloa crus-galli); settings: amount of applied herbicide 320 g/ha
Summary of the method: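 Plants were sown in alluvial soil held under 0.1–0.5 cm standing water and grown 14 days in a greenhouse at 25–30 °C. An emulsifiable formulation, water-diluted to the set dose, was then sprayed onto the foliage, and effects were scored three weeks later using previously defined criteria.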

southern crabgrass [2] = test: Test Example 4: herbicidal effect by soil treatment (Table 19, symbol F); type: in vivo, southern crabgrass (Digitaria ciliaris); settings: amount of applied herbicide 320 g/ha
Summary of the method: as §2

blackgrass [3] = test: Test Example 5: herbicidal effect by foliage application, plastic box (Table 20, symbol J); type: in vivo, blackgrass (Alopecurus myosuroides); settings: foliage application; for J: blackgrass, herbicidal effect grade: three weeks after application
Summary of the method: as §1

redroot pigweed [4] = test: Test Example 5: herbicidal effect by foliage application, plastic box (Table 20, symbol N); type: in vivo, redroot pigweed (Amaranthus retroflexus); settings: foliage application; for N: redroot pigweed, herbicidal effect grade: three weeks after application
Summary of the method: as §1

Japanese bulrush [5] = test: Test Example 2: herbicidal activity, application during weed generation under submerged conditions (Table 17, symbol B); type: in vivo, Japanese bulrush (Schoenoplectus juncoides); settings: for herbicidal effect rating, B: Japanese bulrush: AAH 320 g/ha, application during weed generation, submerged conditions
Summary of the method: (§3)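 Herbicide emulsion, diluted with water to the chosen amount, is applied onto 4 cm floodwater over alluvial soil where the weeds were co-sown and raised at 25–30° C. Application timing: 1–2 leaves. Assessment: three weeks afterwards.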

redroot pigweed [6] = test: Test Example 4: herbicidal effect by soil treatment (Table 19, symbol N); type: in vivo, redroot pigweed (Amaranthus retroflexus); settings: amount of applied herbicide 320 g/ha
Summary of the method: as §2

southern crabgrass [7] = test: Test Example 5: herbicidal effect by foliage application, plastic box (Table 20, symbol F); type: in vivo, southern crabgrass (Digitaria ciliaris); settings: foliage application; for F: southern crabgrass, herbicidal effect grade: three weeks after application
Summary of the method: as §1

late watergrass = test: Test Example 2: herbicidal activity, application during weed generation under submerged conditions (Table 17, symbol A); type: in vivo, late watergrass (Echinochloa oryzicola); settings: for herbicidal effect rating, A: late watergrass: AAH 320 g/ha, application during weed generation, submerged conditions
Summary of the method: as §3

oval-leafed pondweed = test: Test Example 1: herbicidal activity, application before weed generation under submerged conditions (Table 16, symbol C); type: in vivo, oval-leafed pondweed (Monochoria vaginalis); settings: amount of applied herbicide 320 g/ha
Summary of the method: (§4)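 Emulsion formulation, water-diluted to set dose, was put onto the flooded surface (4 cm depth, alluvial soil) the same day weeds were sown and 2.5-leaf rice transplanted. After 3 weeks at 25-30 °C under glass, each species was rated 0 (≤5% kill) to 5 (≥90% kill).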

blackgrass [8] = test: Test Example 4: herbicidal effect by soil treatment (Table 19, symbol J); type: in vivo, blackgrass (Alopecurus myosuroides); settings: amount of applied herbicide 320 g/ha
Summary of the method: as §2

Japanese bulrush [9] = test: Test Example 1: herbicidal activity, application before weed generation under submerged conditions (Table 16, symbol B); type: in vivo, Japanese bulrush (Schoenoplectus juncoides); settings: amount of applied herbicide 320 g/ha
Summary of the method: as §4

green foxtail = test: Test Example 5: herbicidal effect by foliage application, plastic box (Table 20, symbol G); type: in vivo, green foxtail (Setaria viridis); settings: foliage application; for G: green foxtail, herbicidal effect grade: three weeks after application
Summary of the method: as §1

barnyard grass [10] = test: Test Example 4: herbicidal effect by soil treatment (Table 19, symbol H); type: in vivo, barnyard grass (Echinochloa crus-galli); settings: amount of applied herbicide 320 g/ha
Summary of the method: as §2

[11] = 320 g/ha, evaluated 3 weeks after application
[12] = application during weed generation under submerged conditions, amount of applied herbicide 320 g/ha
[13] = AAH 320 g/ha, evaluated three weeks after application

Compound	P: chickweed, herbicidal effect grade (chickweed)	F: southern crabgrass, herbicidal effect grade (southern crabgrass [2])	N: redroot pigweed, herbicidal effect grade (redroot pigweed [6])	Herbicidal effect, C: oval-leafed pondweed (oval-leafed pondweed)	J: blackgrass, herbicidal effect grade (blackgrass [8])	Herbicidal effect, B: Japanese bulrush (Japanese bulrush [9])	H: barnyard grass, herbicidal effect grade (barnyard grass [10])	herbicidal effect, P: chickweed (chickweed)	herbicidal effect on H: barnyard grass (barnyard grass [1])	herbicidal effect, F: southern crabgrass (southern crabgrass [2])	herbicidal effect rating, B: Japanese bulrush (Japanese bulrush [5])	herbicidal effect, N: redroot pigweed (redroot pigweed [6])	herbicidal effect rating, A: late watergrass (late watergrass)	herbicidal effect, J: blackgrass (blackgrass [8])	herbicidal effect, H: barnyard grass (barnyard grass [10])	I: wild oat, herbicidal effect grade (wild oat; 320 g/ha)	O: lambsquarters, herbicidal effect grade (lambsquarters; 320 g/ha)	R: persian speedwell, herbicidal effect grade (persian speedwell; 320 g/ha)	J: blackgrass, herbicidal effect grade (blackgrass [3]; 320 g/ha)	N: redroot pigweed, herbicidal effect grade (redroot pigweed [4]; 320 g/ha)	also measured
COCCOc1ccc(-c2oc3ccc(C)cc3c2-c2c(O)c(C)nn(C)c2=O)cc1 [9-063]	4 (Herbicidal rate of 70% or more and less than 90%)	5 (Herbicidal rate of 90% or more (almost completely withered))	5 (Herbicidal rate of 90% or more (almost completely withered))	5 (Herbicidal rate of 90% or more (almost completely withered))	5 (Herbicidal rate of 90% or more (almost completely withered))	5 (Herbicidal rate of 90% or more (almost completely withered))	5 (Herbicidal rate of 90% or more (almost completely withered))														I (wild oat) herbicidal effect grade (wild oat; [11]): 1 (Herbicidal rate of 5% or more and less than 20%); O (lambsquarters) herbicidal effect grade (lambsquarters; [11]): 5 (Herbicidal rate of 90% or more (almost completely withered)); R (persian speedwell) herbicidal effect grade (persian speedwell; [11]): 5 (Herbicidal rate of 90% or more (almost completely withered)); Herbicidal effect on H (barnyard grass), foliage application (barnyard grass [1]): 5 (Herbicidal rate of 90% or more (almost completely withered)); J (blackgrass) herbicidal effect grade (blackgrass [3]; [11]): 5 (Herbicidal rate of 90% or more (almost completely withered)); N (redroot pigweed) herbicidal effect grade (redroot pigweed [4]; [11]): 5 (Herbicidal rate of 90% or more (almost completely withered)); herbicidal effect grade, B: Japanese bulrush (Japanese bulrush [5]; [12]): 4 (Herbicidal rate of 70% or more and less than 90%); F (southern crabgrass) herbicidal effect grade (southern crabgrass [7]; [11]): 5 (Herbicidal rate of 90% or more (almost completely withered)); herbicidal effect grade, A: late watergrass (late watergrass; [12]): 5 (Herbicidal rate of 90% or more (almost completely withered)); G (green foxtail) herbicidal effect grade (green foxtail; [11]): 5 (Herbicidal rate of 90% or more (almost completely withered))
CCCC(=O)Oc1c(C)nn(C)c(=O)c1-c1c(-c2ccc(Cl)s2)sc2ccc(F)cc12 [2-391]				5 (Herbicidal rate of 90% or more (almost completely withered))		4 (Herbicidal rate of 70% or more and less than 90%)		4 (Herbicidal rate of 70% or more and less than 90%)	5 (Herbicidal rate of 90% or more (almost completely withered))	5 (Herbicidal rate of 90% or more (almost completely withered))	4 (Herbicidal rate of 70% or more and less than 90%)	5 (Herbicidal rate of 90% or more (almost completely withered))	3 (Herbicidal rate of 40% or more and less than 70%)	2 (Herbicidal rate of 20% or more and less than 40%)	4 (Herbicidal rate of 70% or more and less than 90%)						I: wild oat, herbicidal effect (criteria 0-5) (wild oat; [13]): 3 (Herbicidal rate of 40% or more and less than 70%); O: lambsquarters, herbicidal effect (criteria 0-5) (lambsquarters; [13]): 4 (Herbicidal rate of 70% or more and less than 90%); R: persian speedwell, herbicidal effect (criteria 0-5) (persian speedwell; [13]): 5 (Herbicidal rate of 90% or more (almost completely withered)); J: blackgrass, herbicidal effect (criteria 0-5) (blackgrass [3]; [13]): 3 (Herbicidal rate of 40% or more and less than 70%); N: redroot pigweed, herbicidal effect (criteria 0-5) (redroot pigweed [4]; [13]): 5 (Herbicidal rate of 90% or more (almost completely withered)); F: southern crabgrass, herbicidal effect (criteria 0-5) (southern crabgrass [7]; [13]): 5 (Herbicidal rate of 90% or more (almost completely withered)); G: green foxtail, herbicidal effect (criteria 0-5) (green foxtail; [13]): 5 (Herbicidal rate of 90% or more (almost completely withered))
CCOC(=O)Oc1c(C)nn(C)c(=O)c1-c1c(-c2ccccc2OC)sc2cc(F)ccc12 [3-024]	3 (Herbicidal rate of 40% or more and less than 70%)	3 (Herbicidal rate of 40% or more and less than 70%)	5 (Herbicidal rate of 90% or more (almost completely withered))	0 (Herbicidal rate of 5% or less (almost no effect))	1 (Herbicidal rate of 5% or more and less than 20%)	0 (Herbicidal rate of 5% or less (almost no effect))	3 (Herbicidal rate of 40% or more and less than 70%)		5 (Herbicidal rate of 90% or more (almost completely withered))		3 (Herbicidal rate of 40% or more and less than 70%)		2 (Herbicidal rate of 20% or more and less than 40%)			3 (Herbicidal rate of 40% or more and less than 70%)	4 (Herbicidal rate of 70% or more and less than 90%)	1 (Herbicidal rate of 5% or more and less than 20%)	4 (Herbicidal rate of 70% or more and less than 90%)	5 (Herbicidal rate of 90% or more (almost completely withered))	F: southern crabgrass, herbicidal effect grade (southern crabgrass [7]; 320 g/ha): 1 (Herbicidal rate of 5% or more and less than 20%); G: green foxtail, herbicidal effect grade (green foxtail; 320 g/ha): 5 (Herbicidal rate of 90% or more (almost completely withered))
CCCC(=O)Oc1c(C)nn(C)c(=O)c1-c1c(-c2ccc(F)cc2)sc2cc(F)ccc12 [3-002]				4 (Herbicidal rate of 70% or more and less than 90%)		3 (Herbicidal rate of 40% or more and less than 70%)		3 (Herbicidal rate of 40% or more and less than 70%)	5 (Herbicidal rate of 90% or more (almost completely withered))	0 (Herbicidal rate of 5% or less (almost no effect))	3 (Herbicidal rate of 40% or more and less than 70%)	5 (Herbicidal rate of 90% or more (almost completely withered))	3 (Herbicidal rate of 40% or more and less than 70%)	0 (Herbicidal rate of 5% or less (almost no effect))	0 (Herbicidal rate of 5% or less (almost no effect))	4 (Herbicidal rate of 70% or more and less than 90%)	3 (Herbicidal rate of 40% or more and less than 70%)	5 (Herbicidal rate of 90% or more (almost completely withered))	4 (Herbicidal rate of 70% or more and less than 90%)	5 (Herbicidal rate of 90% or more (almost completely withered))	F: southern crabgrass, herbicidal effect grade (southern crabgrass [7]; 320 g/ha): 4 (Herbicidal rate of 70% or more and less than 90%); G: green foxtail, herbicidal effect grade (green foxtail; 320 g/ha): 4 (Herbicidal rate of 70% or more and less than 90%)
